According to article PMC7704689 (Bioorganic & medicinal chemistry letters, 2020):

test system: Raji cells, a Burkitt's lymphoma (BL) cell line; assay: Viability of Raji cells; type: cell-based, human; details: 100 nM, 72 h

Row | Compound | inhibition of viability of Raji cells
1 | COC(=O)[C@@]12OC[C@]34[C@H]([C@@H](O)[C@@H]1O)[C@@]1(C)CC(=O)C(OC(=O)[C@H](C)NC(=O)OC(C)(C)C)=C(C)[C@@H]1C[C@H]3OC(=O)[C@H](OC(=O)C=C(C)C)[C@@H]24 [Compound 6] | moderate inhibition
2 | COC(=O)[C@@]12OC[C@]34[C@H]([C@@H](O)[C@@H]1O)[C@@]1(C)CC(=O)C(OC(=O)[C@@H]5CCCN5C(=O)OC(C)(C)C)=C(C)[C@@H]1C[C@H]3OC(=O)[C@H](OC(=O)C=C(C)C)[C@@H]24 [Compound 11] | moderate inhibition
3 | COC(=O)[C@@]12OC[C@]34[C@H]([C@@H](O)[C@@H]1O)[C@@]1(C)CC(=O)C(OC(=O)CNC(=O)CN)=C(C)[C@@H]1C[C@H]3OC(=O)[C@H](OC(=O)C=C(C)C)[C@@H]24 [Compound 20] | potent activities comparable to or higher than the parent brusatol
4 | COC(=O)[C@@]12OC[C@]34[C@H]([C@@H](O)[C@@H]1O)[C@@]1(C)CC(=O)C(OC(=O)C[C@H](C)NC(=O)C[C@H](C)N)=C(C)[C@@H]1C[C@H]3OC(=O)[C@H](OC(=O)C=C(C)C)[C@@H]24 [Compound 21] | potent activities comparable to or higher than the parent brusatol
5 | COC(=O)[C@@]12OC[C@]34[C@H]([C@@H](O)[C@@H]1O)[C@@]1(C)CC(=O)C(OC(=O)[C@H](C)NC(=O)[C@H](C)N)=C(C)[C@@H]1C[C@H]3OC(=O)[C@H](OC(=O)C=C(C)C)[C@@H]24 [Compound 22] | not active
6 | COC(=O)[C@@]12OC[C@]34[C@H]([C@@H](O)[C@@H]1O)[C@@]1(C)CC(=O)C(OC(=O)CNC(=O)CNC(=O)CN)=C(C)[C@@H]1C[C@H]3OC(=O)[C@H](OC(=O)C=C(C)C)[C@@H]24 [Compound 23] | potent activities comparable to or higher than the parent brusatol
7 | COC(=O)[C@@]12OC[C@]34[C@H]([C@@H](O)[C@@H]1O)[C@@]1(C)CC(=O)C(OC(=O)C[C@H](C)NS(C)(=O)=O)=C(C)[C@@H]1C[C@H]3OC(=O)[C@H](OC(=O)C=C(C)C)[C@@H]24 [Compound 29] | lost activities
8 | COC(=O)[C@@]12OC[C@]34[C@H]([C@@H](O)[C@@H]1O)[C@@]1(C)CC(=O)C(OCC(=O)NCCN)=C(C)[C@@H]1C[C@H]3OC(=O)[C@H](OC(=O)C=C(C)C)[C@@H]24 [Compound 40] | moderate activity
9 | COC(=O)[C@@]12OC[C@]34[C@H]([C@@H](O)[C@@H]1O)[C@@]1(C)CC(=O)C(OC(=O)CNC(=O)OC(C)(C)C)=C(C)[C@@H]1C[C@H]3OC(=O)[C@H](OC(=O)C=C(C)C)[C@@H]24 [UPB-15] | moderate inhibition
10 | COC(=O)[C@@]12OC[C@]34[C@H]([C@@H](O)[C@@H]1O)[C@@]1(C)CC(=O)C(OC(=O)C[C@H](C)N)=C(C)[C@@H]1C[C@H]3OC(=O)[C@H](OC(=O)C=C(C)C)[C@@H]24 [UPB-26, 3-(3-β-HoAla)-brusatol] | potent activities comparable to or higher than the parent brusatol
11 | COC(=O)[C@@]12OC[C@]34[C@H]([C@@H](O)[C@@H]1O)[C@@]1(C)CC(=O)C(OC(=O)[C@@H]5CCCN5)=C(C)[C@@H]1C[C@H]3OC(=O)[C@H](OC(=O)C=C(C)C)[C@@H]24 [UPB-31] | potent activities comparable to or higher than the parent brusatol

test system: MOLT-4, SU-DHL-6, SU-DHL-10, RPMI-8226 and LCL1 cells; assay: Activity on five other hematologic malignancy derived cell lines; type: cell-based, human; details: MOLT-4, SU-DHL-6, SU-DHL-10, RPMI-8226, LCL1

Row | Compound | activity on five other cell lines
12 | COC(=O)[C@@]12OC[C@]34[C@H]([C@@H](O)[C@@H]1O)[C@@]1(C)CC(=O)C(OCC(=O)NCCN)=C(C)[C@@H]1C[C@H]3OC(=O)[C@H](OC(=O)C=C(C)C)[C@@H]24 [Compound 40] | moderate to good activities

test system: NOD/SCID mice; assay: not given; details: mouse, in vivo

Row | Compound | mice survived (of 4 per group)
13 | COC(=O)[C@@]12OC[C@]34[C@H]([C@@H](O)[C@@H]1O)[C@@]1(C)CC(=O)C(OC(=O)C[C@H](C)N)=C(C)[C@@H]1C[C@H]3OC(=O)[C@H](OC(=O)C=C(C)C)[C@@H]24 [UPB-26, 3-(3-β-HoAla)-brusatol] | four
